Source: patent US20090018194A1, “Use of antimicrobial agents derived from alliaceous plants for the prevention and control of crop diseases, post-harvest rot and as environmental disinifectant products” (DMC Research Center, S.L., priority 2007, published 2009)

Tests used:
[1] = tested on: Fungi mixture (P. expansum, P. italicum, P. digitatum and A. Alternata); assay: disinfection of artificially contaminated containers by drencher; details: drencher 30 seconds
Experimental: A test of the disinfection of containers (fruit boxes and crates) was conducted in which a level of artificial contamination was created by means of controlled inoculation, with the objective of determining optimum doses of application to achieve a satisfactory disinfection. First the containers (made of wood and plastic) were disinfected with sodium hypochlorite, and they were then artificially contaminated via controlled inoculations with different fungi characteristic of the fruit and vegetable processing sector. For this purpose, isolated wild strains were used which, after sporulation, were collected to create a suspension of mixed spores of various fungi (Penicillium expansum, Penicillium italicum, Penicillium digitarum and Alternario alternata) and, separately in simultaneous tests (as a result of its higher rate of growth and its invasive character), a suspension of Rhizopus stolonifer. […] After this fogging, the containers were allowed to dry. The containers were then sampled to determine the level of initial contamination achieved (by means of contact plates containing Rose Bengal agar). The containers were then treated in a pilot line […]. The hold time of the containers under the showers was 30 seconds, and the test doses were 750 ppm and 1050 ppm for PTS and 2000 ppm and 5000 ppm in the case of PTSO. After exiting the showers, the treated containers were allowed to dry, and were again sampled using contact plates with Rose Bengal agar to determine the final level of contamination. The sampling unit was 3 containers and 3 plates per repetition.

[2] = tested on: Escherichia coli ATCC 25922; assay: agar diffusion test with impregnated cellulose discs; assay type: cell-based; details: incl. 6 mm disc
Leveillula taurica = assay: control of powdery mildew in peppers grown in greenhouses; assay type: in vivo; details: doses of 1000 and 2000 ppm; peppers in greenhouse; reference Ciproconazol/Triadimenol
Source text: Some of these tests were especially significant, such as the result against powdery mildew in peppers grown in greenhouses in Almeria. The relevance of the data obtained is based on the scarcity of effective and non-synthetic systems that control this disease (caused by Leveillula taurica).
In the case of this test, spray guns were used, via the greenhouse irrigation system, to apply solutions of 1000 ppm and 2000 ppm of PTS and PTSO, with a nutrient broth volume of 20, 30, 40 l/parcel, depending on the application. These solutions were distributed in parcels of 4 rows, located in the zone of the greenhouse with a greater incidence of powdery mildew, while a reference product was applied in the rest of the warehouse: Ciproconazol (Caddy 10 WG at 10 gr/100 l) for the first and second application, Triadimenol (Bayfidan 25 EC at 25 ml/100 l) for the third application and Ciproconazol/Triadimenol for the final application.

Fusarium spp. = assay: field tests on affected asparagus, Fusarium spp. in the soil; assay type: in vivo; details: for % Reduction / % elimination: soil, 60 days after application, compared to untreated control; for effectiveness of the application (in words): Fusarium spp. in asparagus, disinfection of agricultural soil
Experimental: The treatment doses used were 250, 500 and 1000 ppm of both active principles (PT and PTSO), and the initial incidence of the pathogen was compared with its presence 60 days after its application.
To analyze the growth of the crops infected by Fusarium spp. after the treatments, root and soil samples were taken and tests were performed in the laboratory to investigate the incidence of the pathogen in the roots and soil. The cultivation media used were potato dextrose agar and rose bengal agar (to prevent the invasive character of the Mucoralean fungi).
The soil analysis was conducted by sequential dilutions of the soils in physiological serum with a subsequent sowing in the above mentioned media. The analysis of the roots was performed after dissection of the infected tissues, which were deposited in triplicate on filter paper located above both media, and their evolution over time was studied.
The data are expressed as a percentage of elimination and reduction as a function of the treatment dose compared to the untreated control samples.

[3] = tested on: Listeria innocua CECT 4030; assay: agar diffusion test with impregnated cellulose discs; assay type: cell-based; details: incl. 6 mm disc
Penicillium digitatum = assay: post-harvest rotting of inoculated oranges (Navelina), immersion treatment; assay type: in vivo
Experimental: (§1) This example considers the effectiveness of the active natural principles PTS and PTSO in two different doses for the control of post-harvest rotting of oranges ([…] variety), caused by controlled artificial inoculation with the fungi Penicillium digitatum, Penicillium expansum, Phytophthora citrophthora and Geotrichum candidum, the principal pathogens of this fruit. The inoculation of the oranges was carried out with suspensions of spores of the different wild fungal strains selected, according to the methodology described below. The first step was the isolation and identification of the fungal strains used in the study. The strains of filamentous fungi used in these tests (Penicillium digitatum, Penicillium italicum and Phytophthora citrophthora) were isolated from oranges affected by rot. In these isolation processes, it was not possible to detect any strain belonging to Geotrichum candidum, as a result of which it was necessary to obtain the latter substance from the Spanish Collection of Standard Cultures, where it is identified by reference CECT 1102. […] To promote the implantation of the inoculum of Geotrichum candidum, 200 ppm of cyclohexamide was added to the inoculum prior to its inoculation. […] The assessment of the effectiveness of PTS and PTSO comprised counting of the number of fruits affected by rot in the inoculated zone, to determine the percentage of fruit affected for each treatment and fungus inoculated, and expressing this effectiveness as a percentage of reduction of the affected fruit.

Penicillium italicum = assay: as above; assay type: in vivo
Experimental: as §1

[4] = tested on: Ralstonia solanacearum Strain GM1000; assay type: cell-based; details: in vitro tests
[5] = tested on: the most characteristic diseases that affect these crops; assay: in vivo tests against pre-harvest diseases in various crops (Table 7); details: pre-harvest diseases and pathogens listed in Table 7
Experimental: B. Likewise, numerous tests were conducted “in vivo” to determine the effectiveness of the products for pre- and post-harvest treatments, and also as disinfectant agents for agricultural soils and facilities in the food processing industries.
In post-harvest treatments, tests were conducted in strawberries, citrus fruits, stone fruits and tropical fruits. Tests were also conducted on vegetable plants in a greenhouse (tomatoes, melons, zucchini, peppers, cucumbers and green beans).

[6] = 1600 ppm, 5 days of treatment at 20° C., title: treated with PTSO
[7] = 1600 ppm, 7 days of treatment at 20° C., title: treated with PTSO
[8] = 2500 ppm, 5 days of treatment at 20° C., title: treated with PTSO
[9] = 2500 ppm, 7 days of treatment at 20° C., title: treated with PTSO
[10] = 1600 ppm, 4 days at 20° C., title: treated with PTSO
[11] = 2500 ppm, 4 days at 20° C., title: treated with PTSO

CCCS[S+]([O-])CCC (centres unmarked) [PTS, Propyl Propyl Thiosulfinate]
Reduction of the population (%) ([1]; 750 ppm, Plastic container): 81% | Reduction of the population (%) ([1]; 750 ppm, Wood container): 85% | Reduction of the population (%) ([1]; 1050 ppm, Plastic container): 87% | Reduction of the population (%) ([1]; 1050 ppm, Wood container): 85% | diameter of the microbial inhibition halo ([2]; 60 ppm): 12 mm | diameter of the microbial inhibition halo ([2]; 125 ppm): 17 mm | diameter of the microbial inhibition halo ([2]; 250 ppm): 24 mm | diameter of the microbial inhibition halo ([2]; 500 ppm): 25 mm | diameter of the microbial inhibition halo ([2]; 1000 ppm): 27 mm | control of powdery mildew, as % of the effectiveness of the reference product (Leveillula taurica): 92% | % Reduction (Fusarium spp.; 250 ppm): 0% | % elimination (Fusarium spp.; 250 ppm): 100% | % Reduction (Fusarium spp.; 500 ppm): 12.5% | % elimination (Fusarium spp.; 500 ppm): 87.5% | % Reduction (Fusarium spp.; 1000 ppm): 0% | % elimination (Fusarium spp.; 1000 ppm): 100% | effectiveness of the application (in words) (Fusarium spp.): highly effective | diameter of the microbial inhibition halo ([3]; 60 ppm): 13 mm | diameter of the microbial inhibition halo ([3]; 125 ppm): 23 mm | diameter of the microbial inhibition halo ([3]; 250 ppm): 32 mm | diameter of the microbial inhibition halo ([3]; 500 ppm): 37 mm | diameter of the microbial inhibition halo ([3]; 1000 ppm): 40 mm | % Reduction (Penicillium digitatum; [6]): 72% | % of fruit affected (Penicillium digitatum; [6]): 28% | % Reduction (Penicillium digitatum; [7]): 40% | % of fruit affected (Penicillium digitatum; [7]): 60% | % Reduction (Penicillium digitatum; 1600 ppm, 14 days at 20° C.): 0% | % of fruit affected (Penicillium digitatum; 1600 ppm, 14 days at 20° C.): 100% | % Reduction (Penicillium digitatum; 1666 ppm, 7 days at 20° C.): 23% | % of fruit affected (Penicillium digitatum; 1666 ppm, 7 days at 20° C.): 77% | % Reduction (Penicillium digitatum; [8]): 85% | % of fruit affected (Penicillium digitatum; [8]): 15% | % Reduction (Penicillium digitatum; 2500 ppm, 7 days at 20° C.): 53% | % of fruit affected (Penicillium digitatum; 2500 ppm, 7 days at 20° C.): 47% | % Reduction (Penicillium digitatum; [9]): 57% | % of fruit affected (Penicillium digitatum; [9]): 43% | % of fruit affected (Penicillium digitatum; 2500 ppm, 14 days at 20° C.): 36% | % Reduction (Penicillium italicum; [10]): 80% | % of fruit affected (Penicillium italicum; [10]): 20% | % Reduction (Penicillium italicum; 1600 ppm, 14 days at 20° C.): 72% | % of fruit affected (Penicillium italicum; 1600 ppm, 14 days at 20° C.): 28% | % of fruit affected (Penicillium italicum; 1666 ppm, 7 days at 20° C.): 0% | % Reduction (Penicillium italicum; [11]): 85% | % of fruit affected (Penicillium italicum; [11]): 15% | % Reduction (Penicillium italicum; 2500 ppm, 7 days at 20° C.): 100% | % of fruit affected (Penicillium italicum; 2500 ppm, 7 days at 20° C.): 0% | % Reduction (Penicillium italicum; 2500 ppm, 14 days at 20° C.): 85% | % of fruit affected (Penicillium italicum; 2500 ppm, 14 days at 20° C.): 15% | effectiveness of the application (in words) [4]: highly effective | control capability against the most characteristic diseases of the crops (in words) [5]: high control capability

CCCSS(=O)(=O)CCC [PTSO, Propyl Propyl Thiosulfonate]
Reduction of the population (%) ([1]; 2000 ppm, Plastic container): 93% | Reduction of the population (%) ([1]; 2000 ppm, Wood container): 98% | Reduction of the population (%) ([1]; 5000 ppm, Plastic container): 93% | Reduction of the population (%) ([1]; 5000 ppm, Wood container): 99% | diameter of the microbial inhibition halo ([2]; 60 ppm): 18 mm | diameter of the microbial inhibition halo ([2]; 125 ppm): 19 mm | diameter of the microbial inhibition halo ([2]; 250 ppm): 26 mm | diameter of the microbial inhibition halo ([2]; 500 ppm): 27 mm | diameter of the microbial inhibition halo ([2]; 1000 ppm): 29 mm | control of powdery mildew, as % of the effectiveness of the reference product (Leveillula taurica): slightly lower | % Reduction (Fusarium spp.; 250 ppm): 15% | % elimination (Fusarium spp.; 250 ppm): 85% | % Reduction (Fusarium spp.; 500 ppm): 25% | % elimination (Fusarium spp.; 500 ppm): 75% | % Reduction (Fusarium spp.; 1000 ppm): 0% | % elimination (Fusarium spp.; 1000 ppm): 100% | effectiveness of the application (in words) (Fusarium spp.): highly effective | diameter of the microbial inhibition halo ([3]; 60 ppm): 13 mm | diameter of the microbial inhibition halo ([3]; 125 ppm): 20 mm | diameter of the microbial inhibition halo ([3]; 250 ppm): 35 mm | diameter of the microbial inhibition halo ([3]; 500 ppm): 43 mm | diameter of the microbial inhibition halo ([3]; 1000 ppm): 52 mm | % Reduction (Penicillium digitatum; [6]): 72% | % Reduction (Penicillium digitatum; [7]): 40% | % Reduction (Penicillium digitatum; [8]): 85% | % Reduction (Penicillium digitatum; [9]): 57% | % Reduction (Penicillium italicum; [10]): 80% | % Reduction (Penicillium italicum; [11]): 85% | effectiveness of the application (in words) [4]: highly effective | control capability against the most characteristic diseases of the crops (in words) [5]: high control capability
